Results published in ChEMBL document CHEMBL1136208, “Bone-targeted Src kinase inhibitors: novel pyrrolo- and pyrazolopyrimidine analogues” (Bioorg Med Chem Lett, 2003).

Molecular target: Proto-oncogene tyrosine-protein kinase Src (Homo sapiens, UniProt P12931)
Assay: In vitro inhibition of Src protein tyrosine kinase using the Scintillation proximity kinase assay.
Design: species or system Oryctolagus cuniculus

Sequence of Proto-oncogene tyrosine-protein kinase Src (P12931 2-536 limits assumed): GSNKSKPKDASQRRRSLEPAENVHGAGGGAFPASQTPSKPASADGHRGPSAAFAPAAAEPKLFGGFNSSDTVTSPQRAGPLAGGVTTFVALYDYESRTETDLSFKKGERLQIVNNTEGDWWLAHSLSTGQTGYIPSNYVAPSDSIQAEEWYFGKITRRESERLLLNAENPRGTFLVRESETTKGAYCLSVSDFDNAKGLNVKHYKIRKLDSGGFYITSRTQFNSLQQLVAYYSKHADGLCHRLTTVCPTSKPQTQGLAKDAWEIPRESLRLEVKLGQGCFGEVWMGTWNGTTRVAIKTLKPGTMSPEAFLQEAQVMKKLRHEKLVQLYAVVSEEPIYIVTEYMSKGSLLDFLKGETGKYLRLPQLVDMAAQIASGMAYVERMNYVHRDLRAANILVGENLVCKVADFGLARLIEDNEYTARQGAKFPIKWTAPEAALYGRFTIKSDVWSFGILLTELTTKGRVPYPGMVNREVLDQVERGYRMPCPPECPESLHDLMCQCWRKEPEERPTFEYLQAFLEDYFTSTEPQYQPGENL

IC50 [nM] | Structure (SMILES)
40000 | COc1cccc(-c2cn(-c3ccc(C(=O)Nc4ccc(C(P(=O)(O)O)P(=O)(O)O)cc4)cc3)c3ncnc(N)c23)c1
700 | COc1cccc(-c2cn(-c3ccc(CCOP(=O)(O)CP(=O)(O)O)cc3)c3ncnc(N)c23)c1
40 | Nc1ncnc2c1c(-c1cccc(O)c1)cn2-c1ccc(CCO)cc1
19000 | COc1cccc(-c2cn(-c3cccc(C(=O)Nc4ccc(C(P(=O)(O)O)P(=O)(O)O)cc4)c3)c3ncnc(N)c23)c1
60 | Nc1ncnc2c1c(-c1cccc(O)c1)cn2-c1ccc(CCOP(=O)(O)CP(=O)(O)O)cc1
250 | COc1cccc(-c2cn(-c3ccc(C(=O)NCCCP(=O)(O)CP(=O)(O)O)cc3)c3ncnc(N)c23)c1
4000 | COc1cccc(-c2cn(-c3cccc(C(=O)O)c3)c3ncnc(N)c23)c1
40 | CN(CCO)CCc1ccc(-n2cc(-c3cccc(O)c3)c3c(N)ncnc32)cc1
160 | COc1cccc(-c2cn(-c3ccc(CCN(C)CCO)cc3)c3ncnc(N)c23)c1
2500 | COc1cccc(-c2cn(-c3cccc(C(=O)Nc4ccc(P(=O)(O)O)c(P(=O)(O)O)c4)c3)c3ncnc(N)c23)c1
1500 | COc1cccc(-c2cn(-c3ccc(C(=O)O)cc3)c3ncnc(N)c23)c1
4 | CN(CCOP(=O)(O)CP(=O)(O)O)CCc1ccc(-n2cc(-c3cccc(O)c3)c3c(N)ncnc32)cc1
360 | COc1cccc(-c2cn(-c3cccc(C(=O)NCCCP(=O)(O)CP(=O)(O)O)c3)c3ncnc(N)c23)c1
870 | COc1cccc(-c2cn(-c3ccc(C(=O)Nc4ccc(P(=O)(O)O)c(P(=O)(O)O)c4)cc3)c3ncnc(N)c23)c1
320 | Cc1ccc(-c2nn(-c3cccc(C(=O)NCc4ccc(P(=O)(O)O)c(P(=O)(O)O)c4)c3)c3ncnc(N)c23)cc1
400 | Cc1ccc(-c2nn(-c3cccc(C(=O)NCCCP(=O)(O)CP(=O)(O)O)c3)c3ncnc(N)c23)cc1
20 | Nc1ncnc2c1c(-c1cccc(O)c1)nn2-c1cccc(P(=O)(O)CC(=O)O)c1
1600 | COc1cccc(-c2nn(-c3cccc(P(=O)(O)CC(=O)O)c3)c3ncnc(N)c23)c1
310 | COc1cccc(-c2cn(-c3ccc(CCN(C)CCOP(=O)(O)CP(=O)(O)O)cc3)c3ncnc(N)c23)c1
680 | Cc1ccc(-c2nn(CCCCOP(=O)(O)CP(=O)(O)O)c3ncnc(N)c23)cc1
